From article doi:10.1101/2021.09.28.462154v2 (biorxiv, 2022)

How the values were obtained:
OR1A1 = target: T1, OR1A1 (Homo sapiens, UniProt Q9P1Q5); assay: cAMP accumulation; format: biochemical
T1 sequence (Q9P1Q5 1-309): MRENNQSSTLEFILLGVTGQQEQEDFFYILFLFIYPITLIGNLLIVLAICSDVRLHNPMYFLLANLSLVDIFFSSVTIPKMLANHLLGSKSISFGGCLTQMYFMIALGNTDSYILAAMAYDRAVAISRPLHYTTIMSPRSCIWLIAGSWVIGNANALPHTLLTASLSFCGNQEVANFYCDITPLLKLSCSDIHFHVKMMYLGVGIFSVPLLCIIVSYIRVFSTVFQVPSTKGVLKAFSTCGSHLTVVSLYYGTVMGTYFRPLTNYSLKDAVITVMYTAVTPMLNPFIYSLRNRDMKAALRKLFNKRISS

OR5AN1 = target: T2, OR5AN1 (Homo sapiens, UniProt Q8NGI8); assay: cAMP accumulation; format: biochemical
T2 sequence (Q8NGI8 1-311): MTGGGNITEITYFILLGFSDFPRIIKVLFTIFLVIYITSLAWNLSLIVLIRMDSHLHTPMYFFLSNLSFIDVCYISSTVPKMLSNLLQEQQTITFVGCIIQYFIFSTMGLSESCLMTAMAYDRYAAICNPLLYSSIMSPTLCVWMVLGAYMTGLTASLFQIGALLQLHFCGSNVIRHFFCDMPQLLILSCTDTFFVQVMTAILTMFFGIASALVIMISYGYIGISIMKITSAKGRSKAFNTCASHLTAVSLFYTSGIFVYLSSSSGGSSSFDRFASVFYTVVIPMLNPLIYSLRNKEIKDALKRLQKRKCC

With `CCCCCC(=O)C(C)C(C)=O` (centres unmarked) [3-methyl-2,4-nonanedione] the EC50 (OR1A1) was 388 nM.

`C[C@@H]1CCCCCCCCCCCCC(=O)C1` [muscone] was tested, and the EC50 (OR5AN1) was 290 nM.
